What was measured:
[1] = test system: T1, yeast α-glucosidase; assay: p-nitrophenyl alpha-D-glucopyranoside hydrolysis, absorbance at […] nm; type: biochemical; conditions: unreliable (a separate IC50 is printed for each sample concentration; this row is the 5 mg/mL one); 5 mM pNPG; 100 mM phosphate pH 6.8; 37 °C; 20 min; enzyme source contradictory (yeast or intestinal)
T1 construct: gene MAL12; commercial native enzyme, Sigma-Aldrich; assay text says yeast, reagent list says intestinal

[2] = molecular target: T2, porcine pancreatic lipase (PL) enzyme type II (Sus scrofa, UniProt P00591); assay: p-nitrophenyl butyrate hydrolysis, absorbance at […] nm; type: biochemical; conditions: unreliable (a separate IC50 is printed for each sample concentration; this row is the 5 mg/mL one); crude enzyme; pNPB 10 mM stock in acetonitrile; Tris-HCl pH 7.4; 37 °C; 5 min preincubation
T2 construct: gene PNLIP
T2 sequence (P00591 1-450): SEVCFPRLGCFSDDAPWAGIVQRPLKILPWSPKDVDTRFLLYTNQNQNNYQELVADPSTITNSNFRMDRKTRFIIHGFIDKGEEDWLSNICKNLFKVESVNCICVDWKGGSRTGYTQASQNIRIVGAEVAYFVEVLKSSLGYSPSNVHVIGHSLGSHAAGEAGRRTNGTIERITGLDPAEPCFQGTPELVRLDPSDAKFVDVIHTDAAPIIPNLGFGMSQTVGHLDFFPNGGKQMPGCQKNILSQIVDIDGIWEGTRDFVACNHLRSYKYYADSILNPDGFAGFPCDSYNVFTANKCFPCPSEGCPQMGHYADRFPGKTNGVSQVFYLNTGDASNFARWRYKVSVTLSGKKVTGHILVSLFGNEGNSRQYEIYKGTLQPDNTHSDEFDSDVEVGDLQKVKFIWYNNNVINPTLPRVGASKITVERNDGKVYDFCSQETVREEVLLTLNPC

α-Glucosidase inhibitory Assay / Acarbose [1] [mg/mL]	Pancreatic Lipase (PL) Inhibition Assay / Orlistat [2] [mg/mL]	Structure (SMILES)
0.16		C[C@H]1O[C@H](O[C@H]2[C@H](O)[C@@H](O)[C@@H](O[C@H]3[C@H](O)[C@@H](O)C(O)O[C@@H]3CO)O[C@@H]2CO)[C@H](O)[C@@H](O)[C@@H]1N[C@H]1C=C(CO)[C@@H](O)[C@H](O)[C@H]1O (some centres unmarked) [Acarbose]
	0.08	CCCCCCCCCCC[C@@H](C[C@@H]1OC(=O)[C@H]1CCCCCC)OC(=O)[C@H](CC(C)C)NC=O [Orlistat]
